Values quoted from earlier work, collected in patent US7842686B2, “CGRP receptor antagonists” (Vertex Pharmaceuticals Incorporated, priority 2006, dated 2010).
No end group written: not given here.

What was measured:
[1] = tested on: acute attacks of migraine; conditions: clinical trials (Olesen et al. 2004)
[2] = tested on: facial blood flow; conditions: marmoset, electrical stimulation of the trigeminal ganglion
[3] = tested on: facial blood flow; conditions: rat, trigeminal ganglion stimulation
[4] = tested on: middle meningeal artery; conditions: rats, electrical stimulation of the dura mater, prior administration

In the case of NCCCC[C@H](NC(=O)[C@@H](Cc1cc(Br)c(O)c(Br)c1)NC(=O)N1CCC(N2Cc3ccccc3NC2=O)CC1)C(=O)N1CCN(c2ccncc2)CC1 [BIBN4096BS], the “efficacy in acute attacks of migraine” value [1] is listed as “effective in treating acute attacks of migraine” and the “effect on increase in facial blood flow” value [2] is listed as “could be blocked”.

For “CGRP(8-37): a peptide CGRP antagonist (VTHRLAGLLSRSGGVVKNNFVPTNVGSKAF-NH2; ends and bridges not checked; UniProt P06881 90-119, looked up, fragment)”, the “effect on increase of facial blood flow” value [3] is listed as “inhibited” and the “effect on increase of middle meningeal artery diameter” value [4] is listed as “blocked”.
